Measured values published in ChEMBL document CHEMBL4406868, “Structure-based design and SAR development of novel selective polo-like kinase 1 inhibitors having the tetrahydropteridin scaffold” (Eur J Med Chem, 2019).
pIC50: −log10 of the molar value. Converted amounts (≈) assume the structure as drawn. The source made the active and inactive calls. No cut-off for these calls is given here.

Assays:
[1] = test system: HeLa; test: cells; details: Homo sapiens, 72 h
[2] = molecular target: Serine/threonine-protein kinase PLK2 (Homo sapiens, UniProt Q9NYY3); test: Inhibition of recombinant full length human GST-tagged PLK2 expressed in baculovirus expression system using ser/thr 16 as substrate incubated for 1 hr by Z'-LYTE assay
Sequence of Serine/threonine-protein kinase PLK2 (Q9NYY3 whole entry): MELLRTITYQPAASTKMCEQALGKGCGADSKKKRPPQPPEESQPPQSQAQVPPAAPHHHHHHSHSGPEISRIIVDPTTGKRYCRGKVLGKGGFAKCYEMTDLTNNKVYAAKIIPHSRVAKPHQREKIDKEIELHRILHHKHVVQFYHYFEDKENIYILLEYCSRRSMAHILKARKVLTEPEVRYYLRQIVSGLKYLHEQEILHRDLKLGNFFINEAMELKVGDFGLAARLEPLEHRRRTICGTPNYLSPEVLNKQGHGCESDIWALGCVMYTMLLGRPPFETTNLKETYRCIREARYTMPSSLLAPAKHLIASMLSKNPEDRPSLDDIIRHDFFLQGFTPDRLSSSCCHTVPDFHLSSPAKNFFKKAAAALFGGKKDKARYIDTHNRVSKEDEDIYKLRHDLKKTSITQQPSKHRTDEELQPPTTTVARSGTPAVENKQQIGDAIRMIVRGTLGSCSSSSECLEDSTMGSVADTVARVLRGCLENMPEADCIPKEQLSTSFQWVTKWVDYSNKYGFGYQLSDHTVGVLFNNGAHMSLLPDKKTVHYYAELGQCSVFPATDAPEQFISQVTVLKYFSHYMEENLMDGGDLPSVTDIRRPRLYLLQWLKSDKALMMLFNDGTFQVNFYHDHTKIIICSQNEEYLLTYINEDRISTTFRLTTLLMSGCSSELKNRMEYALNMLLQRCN

[3] = test system: NCI-H1975; details: Homo sapiens
[4] = test system: Huh-7; test: cells; details: Homo sapiens, Huh-7, 72 h
[5] = test system: A549; test: cells; details: Homo sapiens, A549, 72 h
[6] = test system: MCF7; test: cells; details: Homo sapiens, MCF7, 72 h
[7] = test system: K562; test: cells; details: Homo sapiens, K562, 72 h
[8] = test system: NCI-H1975; test: cells; details: Homo sapiens, NCI-H1975, 72 h
[9] = Solubility of compound in PBS buffer at pH 7.4 incubated for 12 hrs by UV-visible spectrophotometry; format: physicochemical

| Structure (SMILES) | GI50 [1] [µM] | pIC50 [2] | GI50 [3] | GI50 [4] [µM] | GI50 [5] [µM] | GI50 [6] [µM] | GI50 [7] [µM] | GI50 [8] [µM] | solubility at 12 h [9] [mg/mL] |
| --- | --- | --- | --- | --- | --- | --- | --- | --- | --- |
| CC[C@@H]1C(=O)N(C)c2cnc(Nc3ccc(C(=O)NC4CCCC4)cc3OC)nc2N1C1CCCC1 | 0.0642 | 8.40 | inactive | 0.0704 | 0.0646 | 0.0855 | 0.084 |  |  |
| CC[C@@H]1C(=O)N(C)c2cnc(Nc3ccc(C(=O)NC4CCN(C(C)C)CC4)cc3OCCO)nc2N1C1CCCC1 | 0.122 |  |  | 0.216 | 0.138 | 0.14 | 0.0658 | 0.171 |  |
| CC[C@@H]1C(=O)N(C)c2cnc(Nc3ccc(C(=O)NC4CCN(C)CC4)cc3OCCO)nc2N1C(C)C | > 10 |  |  | > 10 | > 10 | > 10 | 6.5 | > 10 |  |
| CC[C@@H]1C(=O)N(C)c2cnc(Nc3cc(F)c(C(=O)NC)cc3OCCO)nc2N1C1CCCC1 | 0.0471 |  |  | 0.113 | 0.171 | 0.223 | 0.12 | 0.51 |  |
| CC[C@@H]1C(=O)N(C)c2cnc(Nc3ccc(C(=O)NC4CC4)cc3OCCO)nc2N1C1CCCC1 | 0.129 |  |  | 0.197 | 0.322 | 0.269 | 0.143 | 0.676 |  |
| CC[C@@H]1C(=O)N(C)c2cnc(Nc3ccc(C(=O)NCCN(C)C)cc3OCCO)nc2N1C1CCCC1 | 0.133 | 6.58 |  | 0.239 | 0.283 | 0.312 | 0.0582 | 3.2 |  |
| CC[C@@H]1C(=O)N(C)c2cnc(Nc3cc(F)c(C(=O)NC(C)C)cc3OCCO)nc2N1C1CCCC1 | 0.0284 |  |  | 0.0924 | 0.0676 | 0.0306 | 0.0452 | 0.128 | < 0.15 |
| CC[C@@H]1C(=O)N(C)c2cnc(Nc3cc(F)c(C(=O)NC4CCOCC4)cc3OCCO)nc2N1C(C)C | 0.351 | 6.06 |  | 1.11 | 1.17 | 0.931 | 0.915 | 1.92 |  |
| CCNC(=O)c1cc(OCCO)c(Nc2ncc3c(n2)N(C2CCCC2)[C@H](CC)C(=O)N3C)cc1F | 0.0394 | 6.97 |  | 0.141 | 0.0983 | 0.13 | 0.0863 | 0.253 |  |
| CC[C@@H]1C(=O)N(C)c2cnc(Nc3ccc(C(=O)NC4CCOCC4)cc3OCCO)nc2N1C(C)C | 1.75 |  |  | 0.722 | 3.44 | 1.27 | 0.773 | 3.55 |  |
| CC[C@@H]1C(=O)N(C)c2cnc(Nc3ccc(C(=O)NC4CCCC4)cc3OCCO)nc2N1C(C)C | 1.12 |  |  | 1.45 | 2.59 | 1.82 | 1.25 | 2.37 |  |
| CC[C@@H]1C(=O)N(C)c2cnc(Nc3ccc(C(=O)NC4CCCC4)cc3C)nc2N1C1CCCC1 | 0.0208 | 8.33 |  | 0.0368 | 0.0231 | 0.0247 | 0.0231 | 0.04 | < 0.07 |
| CCC1C(=O)N(C)c2cnc(Nc3cc(F)c(C(=O)NC4CCCC4)cc3OCCO)nc2N1C1CCCC1 (stereo unspecified) | 0.123 |  |  | 0.349 | 0.352 | 0.158 | 0.265 | 0.567 |  |
| CC[C@@H]1C(=O)N(C)c2cnc(Nc3ccc(C(=O)NC4CCN(C)CC4)cc3OCCO)nc2N1C1CCCC1 | 0.0292 |  |  | 0.0713 | 0.036 | 0.0615 | 0.0696 | 0.131 | 1.14 (≈ 2070 µM) |
| CCNC(=O)c1ccc(Nc2ncc3c(n2)N(C2CCCC2)[C@H](CC)C(=O)N3C)c(OCCO)c1 | 0.0823 |  |  | 0.0816 | 0.197 | 0.331 | 0.0989 | 0.519 |  |
| CC[C@@H]1C(=O)N(C)c2cnc(Nc3cc(F)c(C(=O)NC4CCN(C)CC4)cc3OCCO)nc2N1C(C)C | 0.275 |  |  | 0.885 | 0.852 | 0.833 | 0.54 | 2.12 |  |
| CC[C@@H]1C(=O)N(C)c2cnc(Nc3ccc(C(=O)NC4CCOCC4)cc3OCCO)nc2N1C1CCCC1 | 0.0419 |  |  | 0.0199 | 0.0794 | 0.0643 | 0.0638 | 0.166 |  |
| CC[C@@H]1C(=O)N(COC)c2cnc(Nc3ccc(C(=O)NC4CCCC4)cc3OC)nc2N1C1CCCC1 | > 10 |  |  | 6.76 | 8.13 | > 10 | > 10 | > 10 |  |
